Several values for one entry are separate records, joined by “and”; a condition that tells them apart may be missing. Identical values can stand only once.
Tested on: collagen-induced arthritis
Test: Collagen-induced arthritis (CIA) model in rats: body weight, paw volume, clinical scores, clinical observations; on Average detailed clinical score, left hind limb: key of the grades not given here; on Average detailed clinical score, right hind limb: key of the grades not given here; on Detailed Clinical Scores, left forelimb: key of the grades not given here; on Detailed Clinical Scores, left hind limb: key of the grades not given here; on Detailed Clinical Scores, right forelimb: key of the grades not given here; on Detailed Clinical Scores, right hind limb: key of the grades not given here; on Detailed Clinical Scores, score: key of the grades not given here; on Detailed Clinical Scores: left forelimb: key of the grades not given here; on Detailed Clinical Scores: left hind limb: key of the grades not given here; on Detailed Clinical Scores: right forelimb: key of the grades not given here; on Detailed Clinical Scores: right hind limb: key of the grades not given here; on Detailed Clinical Scores: score: key of the grades not given here; on Mean overall clinical score ± SD: key of the grades not given here; on overall clinical score: key of the grades not given here
Conditions: for Average detailed clinical score, right hind limb / Average detailed clinical score, score / Mean overall clinical score ± SD / Overall clinical score / Average detailed clinical score, left forelimb / Average detailed clinical score, left hind limb / Average detailed clinical score, right forelimb / Detailed Clinical Scores, left forelimb / Detailed Clinical Scores, left hind limb / Detailed Clinical Scores, right forelimb / Detailed Clinical Scores, right hind limb / Detailed Clinical Scores, score / Detailed Clinical Scores: left forelimb / Detailed Clinical Scores: left hind limb / Detailed Clinical Scores: right forelimb / Detailed Clinical Scores: right hind limb / Detailed Clinical Scores: score: CIA rats; for Overall clinical score: individual animals #1-8; for Mean animal paw volume ± SD: group mean; for Detailed Clinical Scores, left forelimb / Detailed Clinical Scores, left hind limb / Detailed Clinical Scores, right forelimb / Detailed Clinical Scores, right hind limb / Detailed Clinical Scores, score / Detailed Clinical Scores: left forelimb / Detailed Clinical Scores: left hind limb / Detailed Clinical Scores: right forelimb / Detailed Clinical Scores: right hind limb / Detailed Clinical Scores: score: individual animals ID 1-8; for Animal paw volume percent change: individual animals
Procedure: Prior to be randomly placed in treatment groups, animals were weighed, and paw volume was measured. Once randomly assigned to treatment groups, on Day 0, animals in groups 2-9 were immunized by subcutaneous injection at the base of the tail.
The immunization comprised 100 μL of the CFA+Collagen emulsion (prepared according to the method in Experimental Method A). Animals in group one received no immunization. Seven days after the first injection, animals in groups 2-9 received a booster immunization comprising 200 μL of the IFA+Collagen emulsion (prepared according to the method in Experimental Method A).
Starting on Day 0, animals in group 1 and 2 were administered daily doses of the vehicle per os (P.O.) for 21 days. […] The twice daily doses for animals in groups 4-9 were 8 hours apart (e.g., the first dose at 8:00 AM and the second dose at 4:00 PM).
Body weight of all animals was recorded daily for the 21-day period. Blind clinical scores on all four limbs were conducted for all animals in the study. Animals were assessed prior to receiving their first dose of the compound or control, and scores for each limb were combined to a total daily score for each animal. Clinical score assessments were performed on Day 0, 6, 12, 13, 14, 15, 18, 19, and 21 (for a total of 9 daily scores).
Paw volume was recorded for each animal on Day 0, 6, 12, 13, 14, 15, 18, 19, and 21 (for a total of 9 measurements). To measure paw volume, animals were gently held with one hand while the hind paw was placed into a plethysmometer with the other hand. Lipid displacement by the paw was recorded and used to represent paw volume.
All data measured and recorded was analyzed using SPSS 16.0 software. Groups were compared using one-way ANOVA and significance was set at p<0.05.

CNC(=O)c1[nH]c(C(=O)NC2CCC2)cc1O[C@@H](C)c1ccccc1 (stereo in doubt) [Example 101, N^5-cyclobutyl-N^2-methyl-3-(1-phenylethoxy)-1H-pyrrole-2,5-dicarboxamide]
Average detailed clinical score, right hind limb (Day 12, 10 mg/kg): 0.25 | Average detailed clinical score, score (Day 12, 10 mg/kg): 0.50 | Mean overall clinical score ± SD (Day 12, 10 mg/kg): 1 ± 1 | Overall clinical score (Day 12, 10 mg/kg): 1 and 0 and 2 | Average detailed clinical score, left forelimb (Day 12, 30 mg/kg): 0.00 | Average detailed clinical score, left hind limb (Day 12, 30 mg/kg): 0.00 | Average detailed clinical score, right forelimb (Day 12, 30 mg/kg): 0.00 | Average detailed clinical score, right hind limb (Day 12, 30 mg/kg): 0.13 | Average detailed clinical score, score (Day 12, 30 mg/kg): 0.13 | Mean overall clinical score ± SD (Day 12, 30 mg/kg): 0 ± 0 | Mean animal paw volume ± SD (Day 13, L paw, 3 mg/kg): 1.53 mL | Mean animal paw volume ± SD (Day 13, L paw, 10 mg/kg): 1.52 mL | Mean animal paw volume ± SD (Day 13, L paw, 30 mg/kg): 1.35 mL | Mean animal paw volume ± SD (Day 13, R paw, 3 mg/kg): 1.46 mL | Mean animal paw volume ± SD (Day 13, R paw, 10 mg/kg): 1.45 mL | Mean animal paw volume ± SD (Day 13, R paw, 30 mg/kg): 1.37 mL | Detailed Clinical Scores, left forelimb (Day 13, 3 mg/kg): 0 | Detailed Clinical Scores, left hind limb (Day 13, 3 mg/kg): 1 (4×) and 0 (3×) and 2 | Detailed Clinical Scores, right forelimb (Day 13, 3 mg/kg): 0 (6×) and 1 (2×) | Detailed Clinical Scores, right hind limb (Day 13, 3 mg/kg): 0 (7×) and 1 | Detailed Clinical Scores, score (Day 13, 3 mg/kg): 1 (2×) and 2 (2×) and 0 (3×) and 3 | Detailed Clinical Scores, left forelimb (Day 13, 10 mg/kg): 0 | Detailed Clinical Scores, left hind limb (Day 13, 10 mg/kg): 2 (3×) and 0 (4×) and 1 | Detailed Clinical Scores, right forelimb (Day 13, 10 mg/kg): 0 | Detailed Clinical Scores, right hind limb (Day 13, 10 mg/kg): 1 and 0 (6×) and 2 | Detailed Clinical Scores, score (Day 13, 10 mg/kg): 3 and 0 (4×) and 4 and 2 and 1 | Detailed Clinical Scores, left forelimb (Day 13, 30 mg/kg): 0 | Detailed Clinical Scores, left hind limb (Day 13, 30 mg/kg): 0 | Detailed Clinical Scores, right forelimb (Day 13, 30 mg/kg): 0 | Detailed Clinical Scores, right hind limb (Day 13, 30 mg/kg): 1 and 0 (7×) | Detailed Clinical Scores, score (Day 13, 30 mg/kg): 1 and 0 (7×) | Average detailed clinical score, left forelimb (Day 13, 3 mg/kg): 0.00 | Average detailed clinical score, left hind limb (Day 13, 3 mg/kg): 0.75 | Average detailed clinical score, right forelimb (Day 13, 3 mg/kg): 0.25 | Average detailed clinical score, right hind limb (Day 13, 3 mg/kg): 0.13 | Average detailed clinical score, score (Day 13, 3 mg/kg): 1.13 | Mean overall clinical score ± SD (Day 13, 3 mg/kg): 1 ± 1 | Overall clinical score (Day 13, 3 mg/kg): 1 (2×) and 2 (2×) and 0 (3×) and 3 | Average detailed clinical score, left forelimb (Day 13, 10 mg/kg): 0.00 | Average detailed clinical score, left hind limb (Day 13, 10 mg/kg): 0.88 | Average detailed clinical score, right forelimb (Day 13, 10 mg/kg): 0.00 | Average detailed clinical score, right hind limb (Day 13, 10 mg/kg): 0.38 | Average detailed clinical score, score (Day 13, 10 mg/kg): 1.25 | Mean overall clinical score ± SD (Day 13, 10 mg/kg): 1 ± 2 | Overall clinical score (Day 13, 10 mg/kg): 3 and 0 and 4 | Average detailed clinical score, left forelimb (Day 13, 30 mg/kg): 0.00 | Average detailed clinical score, left hind limb (Day 13, 30 mg/kg): 0.00 | Average detailed clinical score, right forelimb (Day 13, 30 mg/kg): 0.00 | Average detailed clinical score, right hind limb (Day 13, 30 mg/kg): 0.13 | Average detailed clinical score, score (Day 13, 30 mg/kg): 0.13 | Mean overall clinical score ± SD (Day 13, 30 mg/kg): 0 ± 0 | Mean animal paw volume ± SD (Day 14, L paw, 3 mg/kg): 1.69 mL | Mean animal paw volume ± SD (Day 14, L paw, 10 mg/kg): 1.70 mL | Mean animal paw volume ± SD (Day 14, L paw, 30 mg/kg): 1.35 mL | Mean animal paw volume ± SD (Day 14, R paw, 3 mg/kg): 1.59 mL | Mean animal paw volume ± SD (Day 14, R paw, 10 mg/kg): 1.59 mL | Mean animal paw volume ± SD (Day 14, R paw, 30 mg/kg): 1.37 mL | Detailed Clinical Scores, left forelimb (Day 14, 3 mg/kg): 0 | Detailed Clinical Scores, left hind limb (Day 14, 3 mg/kg): 1 (7×) and 3 | Detailed Clinical Scores, right forelimb (Day 14, 3 mg/kg): 0 (6×) and 1 (2×) | Detailed Clinical Scores, right hind limb (Day 14, 3 mg/kg): 1 (2×) and 0 (4×) and 2 and 3 | Detailed Clinical Scores, score (Day 14, 3 mg/kg): 2 (3×) and 4 and 1 (3×) and 6 | Detailed Clinical Scores, left forelimb (Day 14, 10 mg/kg): 0 | Detailed Clinical Scores, left hind limb (Day 14, 10 mg/kg): 3 (3×) and 4 and 0 (4×) | Detailed Clinical Scores, right forelimb (Day 14, 10 mg/kg): 0 | Detailed Clinical Scores, right hind limb (Day 14, 10 mg/kg): 1 (3×) and 3 and 0 (4×) | Detailed Clinical Scores, score (Day 14, 10 mg/kg): 4 (2×) and 6 and 5 and 0 (4×) | Detailed Clinical Scores, left forelimb (Day 14, 30 mg/kg): 0 | Detailed Clinical Scores, left hind limb (Day 14, 30 mg/kg): 0 | Detailed Clinical Scores, right forelimb (Day 14, 30 mg/kg): 0 | Detailed Clinical Scores, right hind limb (Day 14, 30 mg/kg): 1 and 0 (7×) | Detailed Clinical Scores, score (Day 14, 30 mg/kg): 1 and 0 (7×) | Average detailed clinical score, left forelimb (Day 14, 3 mg/kg): 0.00 | Average detailed clinical score, left hind limb (Day 14, 3 mg/kg): 1.25 | Average detailed clinical score, right forelimb (Day 14, 3 mg/kg): 0.25 | Average detailed clinical score, right hind limb (Day 14, 3 mg/kg): 0.88 | Average detailed clinical score, score (Day 14, 3 mg/kg): 2.38 | Mean overall clinical score ± SD (Day 14, 3 mg/kg): 2 ± 2 | Overall clinical score (Day 14, 3 mg/kg): 2 (3×) and 4 and 1 (3×) and 6 | Average detailed clinical score, left forelimb (Day 14, 10 mg/kg): 0.00 | Average detailed clinical score, left hind limb (Day 14, 10 mg/kg): 1.63 | Average detailed clinical score, right forelimb (Day 14, 10 mg/kg): 0.00 | Average detailed clinical score, right hind limb (Day 14, 10 mg/kg): 0.75 | Average detailed clinical score, score (Day 14, 10 mg/kg): 2.38 | Mean overall clinical score ± SD (Day 14, 10 mg/kg): 2 ± 3 | Overall clinical score (Day 14, 10 mg/kg): 4 (2×) and 6 | Average detailed clinical score, left forelimb (Day 14, 30 mg/kg): 0.00 | Average detailed clinical score, left hind limb (Day 14, 30 mg/kg): 0.00 | Average detailed clinical score, right forelimb (Day 14, 30 mg/kg): 0.00 | Average detailed clinical score, right hind limb (Day 14, 30 mg/kg): 0.13 | Average detailed clinical score, score (Day 14, 30 mg/kg): 0.13 | Mean overall clinical score ± SD (Day 14, 30 mg/kg): 0 ± 0 | Mean animal paw volume ± SD (Day 15, L paw, 3 mg/kg): 1.86 mL | Animal paw volume percent change (Day 15, L paw, 3 mg/kg): 31.80% and 28.90% and 44.87% and 22.68% and 86.59% and 50.55% and 30.34% | Mean animal paw volume ± SD (Day 15, L paw, 10 mg/kg): 1.83 mL | Animal paw volume percent change (Day 15, L paw, 10 mg/kg): 53.43% and 36.90% and 80.93% and 93.39% and 7.66% and 22.69% | Mean animal paw volume ± SD (Day 15, L paw, 30 mg/kg): 1.45 mL | Mean animal paw volume ± SD (Day 15, R paw, 3 mg/kg): 1.92 mL | Animal paw volume percent change (Day 15, R paw, 3 mg/kg): 25.86% and 20.97% and 74.62% and 27.24% and 84.29% and 50.19% and 48.69% | Mean animal paw volume ± SD (Day 15, R paw, 10 mg/kg): 1.75 mL | Animal paw volume percent change (Day 15, R paw, 10 mg/kg): 37.01% and 45.42% and 94.98% and 47.10% and 6.18% and 10.73% | Mean animal paw volume ± SD (Day 15, R paw, 30 mg/kg): 1.48 mL | Detailed Clinical Scores: left forelimb (Day 15, 3 mg/kg): 0 | Detailed Clinical Scores: left hind limb (Day 15, 3 mg/kg): 1 (3×) and 2 (3×) and 4 and 3 | Detailed Clinical Scores: right forelimb (Day 15, 3 mg/kg): 0 (6×) and 1 (2×) | Detailed Clinical Scores: right hind limb (Day 15, 3 mg/kg): 1 (3×) and 3 (2×) and 2 (2×) and 4 | Detailed Clinical Scores: score (Day 15, 3 mg/kg): 2 and 3 (3×) and 6 (2×) and 8 and 4 | Detailed Clinical Scores: left forelimb (Day 15, 10 mg/kg): 0 | Detailed Clinical Scores: left hind limb (Day 15, 10 mg/kg): 3 (2×) and 2 and 4 and 0 (2×) and 1 (2×) | Detailed Clinical Scores: right forelimb (Day 15, 10 mg/kg): 0 | Detailed Clinical Scores: right hind limb (Day 15, 10 mg/kg): 2 (3×) and 4 and 0 (2×) and 1 (2×) | Detailed Clinical Scores: score (Day 15, 10 mg/kg): 5 and 4 and 7 and 6 and 0 and 1 (2×) and 2 | Detailed Clinical Scores: left forelimb (Day 15, 30 mg/kg): 0 | Detailed Clinical Scores: left hind limb (Day 15, 30 mg/kg): 0 (6×) and 2 and 1 | Detailed Clinical Scores: right forelimb (Day 15, 30 mg/kg): 0 | Detailed Clinical Scores: right hind limb (Day 15, 30 mg/kg): 1 (2×) and 0 (5×) and 2 | Detailed Clinical Scores: score (Day 15, 30 mg/kg): 1 and 2 (3×) and 0 (4×) | Average detailed clinical score, left forelimb (Day 15, 3 mg/kg): 0.00

Source: patent US20250263370A1 (Tay Therapeutics Limited, priority 2022, published 2025)
